Several values for one entry are separate records, joined by “and”; a condition that tells them apart may be missing. Equal entries are not always repeated.

This is an account of results in patent US20240269215A1, “NUTRITIONAL COMPOSITION FOR MUSCLE MASS, STRENGTH AND FUNCTION” (N.V. Nutricia, priority 2021, published 2024).

The nature of data set [1]: Leucine bioavailability (plasma leucine from dry blood spots) in aged mice. The format is in vivo. How it is done:
Aged mice (animal model: see example 1) were fed with one of the 4 supplements at TO and after 10 minutes a droplet of blood from the tail was collected and stamped on a card. […] The results are plotted in FIG. 2A. Since feces was not collected, it was not possible to precisely calculate the N in- and output. […] Summarized, the amount of leucine present in the intact protein was known from the analyses of the pure protein sources (data sheets available). […] Since fasted mice also show a baseline level of plasma leucine, these values were then deducted from the obtained leucine plasma values (column D in table below). […] It was then calculated the contribution of the increase from the intact Leu (column E) and from the added free leucine (column F).

Data set [2] has as its system Muscle Protein Synthesis (MPS). As to conditions: same experimental protocol, earlier work; cited from earlier work.

On to `CC(C)C[C@H](N)C(=O)O` [free leucine, L-leucine], for which the “bioavailability factor of leucine (rise of plasma leucine per mg of leucine consumed)” value in data set [1] is 17.4 mmol/L/mg and 17.3 mmol/L/mg. Further, the “anabolic (MPS) response in aged mice, Dijk (2018)” value in data set [2] is on record as “did not show an anabolic response”.
